Among the data in US20230278958A1 (Merck Patent GmbH, priority 2020, published 2023) are IC50 and melting point values, retold here.

The test system of one data set is YAP-TEAD interaction. The data set can be described thus: SK-HEP-1 reporter assay (8x TEAD responsive elements driving NanoLuc luciferase). The format is cell-based. The following applies: Homo sapiens, SK-HEP1; SK-HEP-1 TEAD-NanoLuc reporter cells, 24 hour incubation, luciferase readout. The procedure, abridged: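 SK-HEP-1 cells carrying stable 8× TEAD-element NanoLuc reporter, treated in duplicate with 10-point doses (top 30 μM final, 0.3% DMSO) for 24 h at 37 °C. Luciferase activity read by NanoGlo luminescence; IC50 values derived.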
Background: Reporter assays use an easily measured gene product as a stand-in for the process of interest.

In the next data set the test system is SW620 Yap KO cells. The data set can be described thus: Viability assay in SW620 Yap KO (Yap independent) cells, CyQUANT. In kind it is cell-based. The conditions noted are these: Homo sapiens, SW-620, SW620 YAP/TAZ knock-out (YAP independent) cells, 96 hour incubation. How it is done:
The ability of YAP-TEAD inhibitors to inhibit tumor cell growth was evaluated using two different cell lines: NCI-H226, which is a YAP dependent cell line, and SW620 cells, where YAP and TAZ were knocked out using CRISPR to generate a YAP independent cell line.
For the assay, cells were treated in duplicates with the test compounds in a 10-point dose, 1:3 dilution steps, with the top concentration starting at 30 μM (final concentration in assay). After a 96 hour incubation at 37° C., 95% rH, and 5% CO2, a cell-permeant DNA-binding dye that stains only healthy cells (CyQUANT®, Promega) was added to the cells, allowing the quantification of cell viability.
Cell Media: The NCI-H226 cells were cultured in the following media: RPMI 1640, +10% FBS, +1× GlutaMAX, +10 mM HEPES, +0.5% Pen/Strep. The SW620-KO cells were cultured in the following media: DMEM/F-12, +10% FBS, +1× GlutaMAX, +10 mM HEPES, +0.5% Pen/Strep.
Reagents: The reagents used are listed below:
Cell culture: The cells were examined using an inverted microscope to check for health, cell density, etc. To dissociate adherent cells, the monolayer of cells was washed once with pre-warmed PBS. After removing the PBS, 3 ml pre-warmed Accutase was added to a F75 flask, dispersed evenly and the flask was allowed to sit in incubator for ˜4-5 minutes.
When a single cell suspension was obtained, 7 ml of prewarmed growth media was added and resuspended with the cells. The cell suspension was transferred to a sterile 15 ml conical centrifuge tube, and spun for 5 min at 300×g, RT. The supernatant was discarded and the pellet was resuspended in 10 ml of pre-warmed growth media.
The total cell count was determined, and 20 μl of the desired cell number was added to each well of a 384 well plate using a Multidrop Combi. The plates were then incubated for 24 hours at 37° C., 95% rH, and 5% CO2.
Compound treatment: 24 hours after seeding, the cells were treated with compounds.
A 1:333 dilution of compounds, diluted in DMSO, was made to get a final concentration of 0.3% DMSO per well. To transfer the compounds to the assay plate, 120 nl was shot from Labcyte low dead volume plates to the cell plates containing 20 μl media/well with the ECHO 555 liquid handling system.
After treatment, the cells were fed with 20 μl fresh pre-warmed assay media using a Multidrop combi.
The assay plates were then incubated for 96 h at 37° C., 95% rH, and 5% CO2.
96h after treatment 30 μl of CyQuant® reagent was added to the assay plates using a Multidrop combi in the dark. The plates were then incubated for 1 hour at 37° C., 95% rH and 5% CO2. Thereafter, the assay plates were removed from the incubator and allowed to equilibrate to RT for 30 min in the dark without lid. Finally, they were measured using an EnVision microplate reader with a FITC bottom read program.
Experimental data in the Viability assay of the compounds shown in Table 1 are shown in Table 3 below and classified in the following groups: […]

For the next data set, the system named is NCI-H226 cells. In words: Viability assay in NCI-H226 (Yap-dependent) cells, CyQUANT. The format is cell-based. The following applies: Homo sapiens, 96 hour incubation.

By IC50 is commonly meant the concentration that inhibits the measured activity by half. High values mean weaker potency, low ones greater potency. `O=C(O)c1ccc2c(c1)c1cc(Cc3ccccc3)ccc1n2-c1ccc(C(F)(F)F)cc1` [Compound 1, 6-benzyl-9-[4-(trifluoromethyl)phenyl]-9H-carbazole-3-carboxylic acid]: the IC50 was 100 to 1000 nM with YAP-TEAD interaction, more than 10 µM in the data set on SW620 Yap KO cells and 0.1 to 1 µM in the data set with NCI-H226 cells.

On to `Cc1cccc2c1c1cc(C(=O)O)ccc1n2-c1ccc(C(F)(F)F)cc1` [Compound 6, 5-methyl-9-[4-(trifluoromethyl)phenyl]-9H-carbazole-3-carboxylic acid], for which the concentration for half-maximal inhibition (IC50) was 1 to 10 nM with YAP-TEAD interaction, more than 10 µM with SW620 Yap KO cells and 0.001 to 0.1 µM with NCI-H226 cells.

`O=C(O)c1ccc2c(c1)c1ccccc1n2-c1ccc(C(F)(F)F)cc1` [Compound 8, 9-[4-(trifluoromethyl)phenyl]-9H-carbazole-3-carboxylic acid]: the results for the half-inhibitory concentration (IC50) with YAP-TEAD interaction, in the data set with SW620 Yap KO cells and in the data set with NCI-H226 cells were 10 to 100 nM, more than 10 µM and 0.1 to 1 µM, respectively.

With `Cc1ccc2c(c1)c1cc(C(=O)O)ccc1n2-c1ccc(C(F)(F)F)cc1` [Compound 10, 6-methyl-9-[4-(trifluoromethyl)phenyl]-9H-carbazole-3-carboxylic acid], the concentration for half-maximal inhibition (IC50) in the data set with YAP-TEAD interaction is 1 to 10 nM; in the data set with SW620 Yap KO cells, more than 10 µM; in the data set with NCI-H226 cells, 0.001 to 0.1 µM.

The melting point is the temperature of the solid-liquid transition. `CNC(=O)c1ccc2c(c1)c1cc(C)ccc1n2-c1ccc(C(F)(F)F)cc1` [Compound 21, N,6-dimethyl-9-[4-(trifluoromethyl)phenyl]-9H-carbazole-3-carboxamide]: the melting point was in the range of 184 to 186 °C. In addition, in the data set with YAP-TEAD interaction, the IC50 is 1 to 10 nM. Also, the IC50 in the data set on SW620 Yap KO cells lay within 1 to 10 µM. Further, the IC50 in the data set with NCI-H226 cells was in the range of 0.001 to 0.1 µM.

The compound `CNC(=O)c1ccc2c(c1)c1nc(C)ccc1n2-c1ccc(C(F)(F)F)cc1` [Compound 22, N,2-dimethyl-5-[4-(trifluoromethyl)phenyl]-5H-pyrido[3,2-b]indole-8-carboxamide] yielded a melting point of 134 to 136 °C. The compound further had an IC50 with YAP-TEAD interaction of 10 to 100 nM. Moreover, the IC50 in the data set with SW620 Yap KO cells is more than 10 µM. This compound displayed an IC50 in the data set with NCI-H226 cells of 0.001 to 0.1 µM.

Compound `CNC(=O)c1ccc2c(c1)c1nc(OC)ccc1n2-c1ccc(C(F)(F)F)cc1` [Compound 27, 2-methoxy-N-methyl-5-[4-(trifluoromethyl)phenyl]-5H-pyrido[3,2-b]indole-8-carboxamide] yielded a melting point of 180 to 182 °C. In the data set on YAP-TEAD interaction, the concentration for half-maximal inhibition (IC50) lay within 10 to 100 nM. Also, the concentration for half-maximal inhibition (IC50) in the data set on SW620 Yap KO cells was more than 10 µM. Besides, in the data set on NCI-H226 cells, the concentration for half-maximal inhibition (IC50) was in the range of 0.001 to 0.1 µM.

Compound `CNC(=O)c1ccc2c(c1)c1cc(C(C)C)ccc1n2-c1ccc(C(F)(F)F)cc1` [Compound 28, N-methyl-6-(propan-2-yl)-9-[4-(trifluoromethyl)phenyl]-9H-carbazole-3-carboxamide] gave a melting point of 141 to 142 °C. In addition, the IC50 with YAP-TEAD interaction is 10 to 100 nM. In the data set with SW620 Yap KO cells, this compound came in with an IC50 of 1 to 10 µM. In the data set with NCI-H226 cells, the IC50 fell in the range of 0.1 to 1 µM.
